pIC50: −log10 of the molar value.
Experiments:
[1] = target: T1, protein-protein interaction between SOS1 and KRAS G12C (Homo sapiens, UniProt P01116, C118S/C51S/C80L/G12C); experiment: KRAS::SOS1 AlphaScreen binding assay; details: Table 36
T1 construct: His6 (N)

[2] = target: KRASG12-dependent Ba/F3 cells (Homo sapiens, UniProt P01116, G12C, cells depend on it); experiment: Ba/F3 cell model proliferation assay (AlamarBlue, 72 h); type: cell-based; details: Ba/F3 cells transduced with KRASG12C, read-out: IC50 Ba/F3 KRASG12C
SW837 cells = experiment: SW 837 CTG proliferation assay (CRC); type: cell-based; details: Homo sapiens
Experimental: SW837 cells (ATCC #CCL-235) were grown in cell culture flasks (175 cm^2) using L-15 10% FCS, 1% L-Glu, 1xNEAA and 1× Na-Pyrovat. Cultures were incubated at 37° C. and 0% CO2 in a humidified atmosphere, with medium change or subcultivation 2-3 times a week. Materials used for the assay were CulturPlate-384, White Opaque 384-well Microplate, Sterile and Tissue Culture Treated (Perkin Elmer #6007680), Leibovitz L15 Medium and FBS #SH30071.03 (HyClone).
(§1) The proliferation assays started (day1) with seeding cells in flat bottom 384 well microtiter plates in 90 μL L-15 10% FCS, 1% L-Glu, 1xNEAA and 1×Na-Pyrovat at a density of 500 cells/well. Any other luminescence compatible plate format is possible. On day 2, 10 μL dilutions of the test compounds covering a concentration range between app. 0,1 and 10.000 nM were added to the cells. Cells were incubated for 5 days in a humidified, CO2 controlled (no CO2) incubator at 37° C. On day 7 100 μL of Cell Titer Glow reagent (Cell titer Glo Luminescent Cat. No. G7571, Promega) were added to each well and incubated for additional 10 min at room temperature (with agitation). Luminescence was measured on a Wallac Victor using standard luminescence read out. IC50 values were calculated using standard Levenburg Marquard algorithms (GraphPad Prism).

MiaPaCa-2 cells = experiment: MiaPaCa-2 CTG proliferation assay (pancreatic cancer); type: cell-based; details: Homo sapiens, MIA PaCa-2, 120 h, 5 days, read-out: IC50 MiaPACA2
Experimental: as §1, with “μL DMEM medium supplemented with” for “μL L-15”, “10% FBS” for “10% FCS, 1% L-Glu, 1xNEAA and 1×Na-Pyrovat”, “humidified, incubator with 5%” for “humidified,”, “CO2” for “CO2 controlled (no CO2) incubator”, “100 μl” for “100 μL”

NCI-H358 cells = experiment: NCI-H358 CTG proliferation assay (120 h) (NSCLC); type: cell-based; details: Homo sapiens
Experimental: NCI-H358 cells (ATCC No. CRL-5807) were dispensed into white bottom opaque 96 well plates (Perkin Elmer cat no. 5680) at a density of 2000 cells per well in 100 μL RPMI-1640 ATCC-Formulation (Gibco #A10491)+10% FCS. Cells were incubated overnight at 37° C. in a humidified tissue culture incubator at 5% CO2. Compounds (10 mM stock in DMSO) were added at logarithmic dose series using the HP Digital Dispenser D300 (Tecan), normalizing for added DMSO. For the T0 time point measurement, untreated cells were analyzed at the time of compound addition. Plates were incubated for 120 hours, and cell viability was measured using CellTiter-Glo luminescent cell viability reagent (Promega product code G7570). Viability (stated as percent of control) is defined as relative luminescence units RLU of each well divided by the RLU of cells in DMSO controls. IC50 values were determined from viability measurements by non-linear regression using a four parameter model.

[3] = test system: pERK (Thr202/Tyr204) in NCI-H358_Cas9_SOS2 (SOS2 knocked); experiment: ERK phosphorylation assay 2 (AlphaLISA SureFire Ultra p-ERK1/2); details: read-out: IC50 H358 pERK, ERK phosphorylation assay 2 (values marked with *)
Experimental: ERK Phosphorylation Assay
Low IC50 values in this assay setting are indicative of high potency of the compounds according to the invention.
GFP positive cells were collected and further expanded. These GFP-positive cell pools were single-cell diluted and SOS2 knock-out clones were identified via Western-blot and genomic DNA sequencing analysis.
Materials Used for the Assay:
AlphaLISA SureFire Ultra p-ERK1/2 (Thr202/Tyr204) Assay Kit (ALSU-PERK-A500)
Cells are seeded at 40,000 cells per well in /60 μL of RPMI with 10% FBS, non-essential amino acids, pyruvate and glutamax in Greiner TC 384 plates. The cells are incubated for 1 h at room temperature and then incubated overnight in an incubator at 37° C. and 5% CO2 in a humidified atmosphere. 60 nL compound solution (10 mM DMSO stock solution) is then added using a Labcyte Echo 550 device. After a 1 h incubation in the aforementioned incubator the medium is removed after centrifugation and the cells lysed by addition of 20 μL of 1.6-fold lysis buffer from the AlphaLISA SureFire Ultra pERK1/2 (Thr202/Tyr204) Assay Kit with added protease inhibitors, 100 nM trametinib+100 nM staurosporine. After 20 minutes of incubation at room temperature with shaking, 6 μL of each lysate sample is transferred to a 384-well Proxiplate and analyzed for pERK (Thr202/Tyr204) with the AlphaLISA SureFire Ultra pERK1/2 (Thr202/Tyr204) Assay Kit. 3 μL Acceptor Mix and 3 μL Donor Mix are added under subdued light and incubated for 2 h at room temperature in the dark, before the signal is measured on a PerkinElmer Envision HTS Multilabel Reader. The raw data were imported into and analyzed with the Boehringer Ingelheim proprietary software MegaLab (curve fitting based on the program PRISM, GraphPad Inc.).

T1 sequence (P01116 1-169 isoform P01116-2 G12C/C51S/C80L/C118S): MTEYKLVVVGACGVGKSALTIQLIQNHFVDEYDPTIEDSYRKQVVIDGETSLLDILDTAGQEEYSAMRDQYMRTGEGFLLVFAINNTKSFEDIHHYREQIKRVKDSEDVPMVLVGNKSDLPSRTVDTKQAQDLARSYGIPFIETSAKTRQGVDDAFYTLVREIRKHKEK
KRASG12-dependent Ba/F3 cells, sequence (P01116 whole entry G12C): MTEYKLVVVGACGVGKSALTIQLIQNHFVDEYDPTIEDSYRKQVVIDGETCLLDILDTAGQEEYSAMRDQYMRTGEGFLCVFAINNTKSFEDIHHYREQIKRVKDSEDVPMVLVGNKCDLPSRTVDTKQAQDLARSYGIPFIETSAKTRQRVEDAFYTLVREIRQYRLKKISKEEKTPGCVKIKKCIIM

SMILES: C=CC(=O)N1CCN(c2cc(-c3noc([C@@]4(C)CCCc5sc(N)c(C#N)c54)n3)nc(O[C@@H](C)[C@@H]3CCCN3C)n2)C[C@@H]1C [Ia-61]
- pIC50 [1]: 8.80
- GI50 [2]: 2.3 nM
- pIC50 (SW837 cells): 9.20
- pIC50 (MiaPaCa-2 cells): 8.37
- pIC50 (NCI-H358 cells): 9.17
- pIC50 [3]: 8.89

SMILES: C=CC(=O)N1[C@H](C)CC(Oc2cc(O[C@@H](C)[C@@H]3CCCN3C)nc(-c3noc([C@@]4(C)CCCc5sc(N)c(C#N)c54)n3)c2)C[C@H]1C (stereo partly drawn) [Ia-86]
- pIC50 [1]: 8.70
- GI50 [2]: 7 nM
- pIC50 (SW837 cells): 8.68
- pIC50 (MiaPaCa-2 cells): 7.86
- pIC50 (NCI-H358 cells): 8.33
- pIC50 [3]: 8.41

SMILES: C=CC(=O)N1C[C@H](C)N(c2cc(-c3noc([C@@]4(C)CCCc5sc(N)c(C#N)c54)n3)nc(O[C@@H](C)[C@@H]3CCCN3C)n2)C[C@H]1C [Ia-133]
- pIC50 [1]: 7.92
- GI50 [2]: 77.7 nM
- pIC50 (SW837 cells): 7.15
- pIC50 (MiaPaCa-2 cells): 6.17
- pIC50 (NCI-H358 cells): 7.38
- pIC50 [3]: 7.54

SMILES: C=CC(=O)N1CCN(c2cc(-c3noc([C@@]4(C)CCCc5sc(N)c(C#N)c54)n3)nc(O[C@@H](C)[C@@H]3CCCN3C)n2)[C@@H](C)C1 [Ia-54]
- pIC50 [1]: 8.80
- GI50 [2]: 4.3 nM
- pIC50 (SW837 cells): 8.65
- pIC50 (MiaPaCa-2 cells): 8.65
- pIC50 (NCI-H358 cells): 8.87
- pIC50 [3]: 8.66

SMILES: C=CC(=O)N1[C@H](C)CN(c2cc(-c3noc([C@@]4(C)CCCc5sc(N)c(C#N)c54)n3)nc(O[C@@H](C)[C@@H]3CCCN3C)n2)C[C@@H]1C [Ia-64]
- pIC50 [1]: 8.66
- GI50 [2]: 12 nM
- pIC50 (SW837 cells): 8.20
- pIC50 (MiaPaCa-2 cells): 7.92
- pIC50 (NCI-H358 cells): 8.13
- pIC50 [3]: 8.46

SMILES: C=CC(=O)N1CCN(c2cc(-c3noc([C@@]4(C)CCCc5sc(N)c(C#N)c54)n3)nc(O[C@@H](C)[C@@H]3CCCN3C)n2)CC1 [Ia-46]
- pIC50 [1]: 8.77
- GI50 [2]: 4.4 nM
- pIC50 (SW837 cells): > 9.00
- pIC50 (MiaPaCa-2 cells): 8.52
- pIC50 (NCI-H358 cells): 9.02
- pIC50 [3]: 8.68

SMILES: C=CC(=O)N1CCN(c2cc(O[C@@H](C)[C@@H]3CCCN3C)nc(-c3noc([C@@]4(C)CCCc5sc(N)c(C#N)c54)n3)n2)CC12CC2 [Ia-77]
- pIC50 [1]: 8.70
- GI50 [2]: 6.9 nM
- pIC50 (SW837 cells): 8.39
- pIC50 (MiaPaCa-2 cells): 7.87
- pIC50 (NCI-H358 cells): 8.38
- pIC50 [3]: 8.59

SMILES: C=CC(=O)N1[C@@H](C)CN(c2cc(-c3noc([C@@]4(C)CCCc5sc(N)c(C#N)c54)n3)nc(O[C@@H](C)[C@@H]3CCCN3C)n2)C[C@@H]1C [Ia-62]
- pIC50 [1]: 8.80
- GI50 [2]: 1.2 nM
- pIC50 (SW837 cells): 9.38
- pIC50 (MiaPaCa-2 cells): 8.17
- pIC50 (NCI-H358 cells): 9.00
- pIC50 [3]: 8.92
